According to patent US20160159805A1, “Heterocyclic sulfonylamino(thio)carbonyl-derivatives with nematicidal properties” (BAYER CROPSCIENCE AG, priority 2013, published 2016):

Tested on: Meloidogyne incognita
Assay: Meloidogyne incognita test (MELGIN), sand, gall formation on salad seedlings after 14 days
Type: in vivo
Conditions: application rate 20 ppm, 100% = no galls, 0% = galls equal to untreated control
Description: 1. Meloidogyne incognita—test (MELGIN) [table] To produce a suitable preparation of active compound, 1 part by weight of active compound is mixed with the stated amount of solvent, and the concentrate is diluted with water to the desired concentration. Vessels are filled with sand, a solution of the active ingredient, a suspension containing eggs and larvae of the southern root-knot nematode (Meloidogyne incognita) and salad seeds. The salad seeds germinate and the seedlings grow. Galls develop in the roots. After 14 days the nematicidal activity is determined on the basis of the percentage of gall formation. 100% means no galls were found; 0% means the number of galls found on the roots of the treated plants was equal to that in untreated control plants.

SMILES: N#Cc1cnn(Cc2ccc(Cl)c(S(=O)(=O)NC(=O)c3cn4cc(C(F)(F)F)cc(Cl)c4n3)c2)c1 [Ia-14, 8-chloro-N-({2-chloro-5-[(4-cyano-1H-pyrazol-1-yl)methyl]phenyl}sulfonyl)-6-(trifluoromethyl)imidazo[1,2-a]pyridine-2-carboxamide]
- nematicidal activity on the basis of the percentage of gall formation: 100%
